What was measured:
λ DNA = conditions: for staining / visualization of λ DNA molecules: λ DNA (48.5 kbp) tethered, 1×TE flow 100 μL/minute, 70 μM dye solution mixed 1:1, 20-fold diluted, FIGS. 2a-2c
Protocol: An inverted microscope (Olympus IX70, Tokyo, Japan) with 60× Olympus UPlanSApo oil immersion objectives illuminated with an LED light source (SOLA SM II light engine, Lumencor, Beaverton, Oreg., USA) was used. The light was passed through corresponding filter sets (Semrock, Rochester, N.Y., USA) to set the excitation and emission wavelengths. A maximum light intensity of 140 mW/cm^2 was measured. Fluorescence microscopic images were taken with an electron-multiplying charge-coupled device digital camera (Evolve EMCCD, Roper Scientific, Tucson, Ariz., USA) and stored in a 16-bit TIFF format using the software Micro-manager. For image processing and analysis, ImageJ software with Java plug-ins and python programs developed by the present inventors were utilized.
First, λ DNA (NCBI: NC_001416.1) was diluted to a concentration of 5 ng/μL (0.16 nM; base pair 7.76 μM) in 1×TE (10 mM Tris, 1 mM EDTA, pH 8.0) and mixed at a volume ratio of 1:1 with 70 μM of the Preparation Example solution. Next, the mixture was incubated at room temperature for 15 min and 20-fold diluted with 4% […] (β-ME) in 1×TE.
Separately, a flow chamber (5×10×0.1 mm (L×W×H)) was prepared by placing an acrylic support on an acid-cleaned cover slip, with the walls formed by double-sided tape, An NE-1000 syringe pump (New Era Pump Systems Inc., Wantagh, N.Y.) was used to control the buffer.
Thereafter, 40 μg/mL biotinylated bovine serum albumin (BSA) was injected and incubated at room temperature for 10 min, after which a dilution of 20 μg/mL Neutravidin in T50 solution (10 mM Tris, […], pH 8.0) was injected to the flow chamber and incubated at room temperature for 10 min.
Then, 1 μM of λ DNA overhang oligo (5′-p-[…]-Triethyleneglycol-biotin-3′) was loaded into the flow chamber and maintained at room temperature for 10 minutes. λ DNA, 200 U of T4 DNA ligase, and reaction buffer were added and incubated at room temperature for 30 minutes.
Stained DNA molecules were visualized under a continuous flow of 1×TE (100 μl/minute).

[1] = tested on: polytene chromosomes from the Drosophila melanogaster salivary gland; conditions: 2.5 μM in 4% β-ME; tangled and spread polytene chromosomes; FIG. 5a
From the text: For comparison with DAPI, which is conventionally used to visualize polytene chromosomes on a fluorescence microscope, the polytene chromosomes from the Drosophila melanogaster salivary gland were stained with the compound.
In brief, dissected salivary glands from third larvae of Drosophila melanogaster were fixed with a solution containing a 1:2:3 ratio of propionic acid, deionized water, and acetic acid on a positively charged coverslip. Then, the cells were located between a slide glass and the coverslip and then the individual cells were gently spread. After moving the coverslip back and forth on the slide glass, the spread cells were squashed for up to 15 minutes. Then, the slide glass and coverslip were slightly dipped into liquid nitrogen. Just after no more bubbles were generated, the cover slip was removed from the slide glass.

From the text for λ DNA genome: Python Program • ImageCompare.py: a library of functions, • seq2map.py: to convert a FASTA file into a A/T frequency in silico map wherein a selected sequence is represented in white for high frequency regions and in black for low frequency regions. • insilicoMapFolder.py: to scan and compare in silico image files and DNA images obtained through experiments with respect to all images in the folder, to search positions of sites having the highest cross-correlation coefficient, to convert the values, and to store the values in new record files. • sortView.py: to read record files obtained with the insilicoMapFolder.py, to compare signals, to search cross-correlation coefficients, and to visualize image comparison in a new window. • randomtiff.py: to generate random intensity tiff images
Cross-correlation (cc) coefficient values calculated by comparing the alignment of 20 molecular images of above three kinds of binding sequences (W, W4 and W9) with the genome. The control cross-correlation coefficient (hereinafter referred to as cc) was obtained by comparing the 100 computer-generated random sequences with the in silico images (***P<0.0001 for random-sequences paired t-test).

Row | Molecule | staining / visualization of λ DNA molecules (λ DNA) | cross-correlation coefficient (cc) of 20 molecular images aligned with λ DNA genome (λ DNA genome; W, W4, W9 maps, Python program, FIG. 3b) | agreement of measured fluorescence intensity with in silico binding sequence profiles (W, W4, W9) (λ DNA genome; λ genome, FIG. 3a) | fluorescent λ DNA image quality compared with DAPI (λ DNA; λ DNA images, FIG. 5b) | staining of polytene chromosomal DNA [1]
1 | CN(C)CCCNC(=O)c1cc(NC(=O)c2cc(NC(=O)c3cc(NC(=O)c4cc(NC(=O)CCNC(=O)CCNC(=O)c5ccc(C(=O)[O-])c(-c6c7ccc(=[N+](C)C)cc-7oc7cc(N(C)C)ccc67)c5)cn4C)cn3C)cn2C)cn1C [Comparative Example 1, (5-carboxytetramethylrhodamine)-(β-alanine)2-(N-methylpyrrole)4-(3-(dimethylamino)propylamine), reference compound] | stained only in part AT-rich regions and bound undesired regions |  |  |  | 
2 | CN(C)CCCNC(=O)c1cc(NC(=O)c2cc(NC(=O)c3cc(NC(=O)c4cc(NC(=O)CCNC(=O)c5cc(NC(=O)c6cc(NC(=O)c7cc(NC(=O)c8cc(NC(=O)CCNC(=O)CCNC(=O)c9ccc(-c%10c%11ccc(=[N+](C)C)cc-%11oc%11cc(N(C)C)ccc%10%11)c(C(=O)[O-])c9)cn8C)cn7C)cn6C)cn5C)cn4C)cn3C)cn2C)cn1C [Preparation Example, (5-carboxytetramethylrhodamine)-(β-alanine)2-(N-methylpyrrole)4-(β-alanine)-(N-methylpyrrole)4-(3-(dimethylamino)propylamine)] | visualized λ DNA molecules with sequence specificity as well as enhancing the intensity of the molecules | highest cc value for simple A/T frequency | agrees better with simple A/T frequency than W4 and W9 | exhibits a clear backbone compared with DAPI-stained DNA | clearly demonstrate band and interband patterns
3 | (5-carboxytetramethylrhodamine)-(β-alanine)2-(N-methylpyrrole)4-(5-carboxytetramethylrhodamine) [Comparative Example 2, reference compound] | did not bind double-stranded DNA at all |  |  |  | 
